Tests used:
[1] = test system: HL-60 cells; experiment: Western blots of histones from HL-60 cells after cytotoxic agent treatment; assay type: cell-based, human; conditions: for Levels of H2B S14 Phons Induction: etoposide 20 ug/mL, anisomycin 25 ng/mL, anti-Fas 15 ng/mL
Procedure: (§1) Cell culture, drug and UV treatment, and harvesting for protein and DNA: HL-60 cells were cultured in RPMI with 10% FBS whereas 293T, HeLa, HepG2, and IMR90 were grown in DMEM with 10% FBS. Etoposide, anisomycin, […] and anti-Fas were purchased from Sigma. To induce apoptosis, drugs were used in these concentration 20 ug/mL for etoposide, 25 ng/mL anisomycin and 15 ng/mL anti-Fas. For UV induction of apoptosis, 40-100 J/m^2 was used (Biorad GS Gene Linker UV chamber). After induction of apoptosis the growth media was changed and harvested at various times afterward. Control cells were either treated with DMSO or mock-treated.
After the desired treatment, cells were subjected to any of the following: resuspension in SDS-lysis buffer (Laemmli's sample buffer), nuclear extraction, acid extraction for histones, or genomic DNA extraction. Nuclei were isolated by lysis in detergent and low speed spin as described in Strahl et al., (2001) Curr Biol 11, 996-1000. These nuclei can either be salt extracted for nuclear proteins (see below) or acid extracted in 0.4 N H2SO4. After incubating on ice for 2-4 hours, high speed centrifugation is done to remove the insoluble pellet. 5.4% of Percholic acid was added to the supernatant and the precipitated histones were resuspended in water.
(§2) Western blot analysis is performed as described in (Briggs et al., (2001) Genes Dev 15, 3286-3295) 1:1000 of α-phos (S14) H2B, 1:2500 of α-N-Mst1, 1:400 of α-myc (9E10 from Santa Cruz), 1:800 of α-PARP (UBI), 1:1000 of α-phos H2A.X (UBI), and 1:5000 of ax-Acetyl H4 primary antibodies were used. HRP-conjugated rabbit secondary (Amersham Pharmacia) was used at 1:5000. For chemiluminescence, the ECL plus kit (Amersham Pharmacia) was used for detection.
(§3) Initially, HL-60 (human leukemia cell line) cells were treated with etoposide (VP-16) to induce apoptosis. After treatment for various length of time, histones were isolated by acid extraction and examined by Western blot using the S14P antibody. […] To confirm the induction of apoptosis, soluble DNA was extracted from parallel samples at identical time points. The appearance of a ‘DNA ladder’, indicative of apoptotic DNA fragmentation at 4 hour post treatment, coincides precisely with the onset of H2B Ser14 phosphorylation. Furthermore, an increase of H2B S14 phosphorylation was observed that correlates with the exposure time to the etoposide.
(§4) After Cytotoxic agent treatments, cells were harvested. The level of H2B S14 phosphorylation is determined by Western blots using ePhos (S14) H2B.

[2] = test system: HL-60 cells; experiment: Apoptotic DNA fragmentation (DNA ladder) after VP-16 treatment; assay type: cell-based, human
Procedure: Genomic DNA was harvested by lysing the cell pellet in 10 mM Tris pH 9.0, 1 mM EDTA, 10 mM NaCl, 1% w/v SDS, 1 mg/mL of proteinase K at 50° C. for 4-5 hours. To remove proteins, a phenol/chloroform extraction was performed and then the DNA was precipitated in 0.3 M sodium acetate and 70% Ethanol. After centrifugation, the pellet was resuspended in TE and the RNA was digested by adding 1 mg/mL Rnase A for 1 hour at room temp. DNA was separated in 1.2% agarose TAE gel.
as §3

[3] = test system: HL-60 cells; experiment: Caspase 3 inhibitor pre-incubation before VP16, Western analysis of Mst1 cleavage and H2B Ser14 phosphorylation; assay type: cell-based, human; conditions: then VP16 for 4 hours
Procedure: as §2
If H2B (Ser14) phosphorylation is dependent on the cleavage of Mst1, this histone modification should be sensitive to documented caspase 3 inhibitors such as the DEVD peptide. To test this prediction, HL-60 cells were pre-incubated with varying amounts of z-DEVD-fmk (Trevigen) before subsequent treatment with VP16 for 4 hours. Cell extracts were then harvested for western analysis. […] Accordingly, H2B is likely phosphorylated in vivo at Ser14 by the caspase 3-generated form of Mst1.

[4] = test system: HepG2; experiment: Western blot for H2B S14 phosphorylation after cytotoxic agent treatment; assay type: cell-based
Procedure: as §1
After the desired treatment, cells were subjected to any of the following: resuspension in SDS-lysis buffer (Laemmli's sample buffer), nuclear extraction, acid extraction for histones, or genomic DNA extraction. Nuclei were isolated by lysis in detergent and low speed spin as described in Strahl et al., (2001) Curr Biol 11, 996-1000. These nuclei can either be salt extracted for nuclear proteins (see below) or acid extracted in 0.4 N H2SO4. After incubating on ice for 2-4 hours, high speed centrifugation is done to remove the insoluble pellet. […]
as §4

[5] = molecular target: histone H2B (substrate of the in vitro kinase reactions)

Molecule: COc1cc([C@@H]2c3cc4c(cc3[C@@H](O[C@@H]3O[C@@H]5CO[C@@H](C)O[C@H]5[C@H](O)[C@H]3O)[C@H]3COC(=O)[C@H]23)OCO4)cc(OC)c1O [Etoposide (VP16), Etoposide]
- Time of H2A.X phosphorylation after treatment ([1]; Western blot): one
- Time post treatment at which H2B phosphorylation signal is strongly enhanced ([1]; Western blot with S14P antibody): around 4 hours
- Levels of H2B S14 Phons Induction ([1]; Western blot): High
- Time post treatment of appearance of DNA ladder (apoptotic DNA fragmentation) [2]: 4 h

Molecule: z-DEVD-fmk
- H2B phosphorylation ([3]; 20 mM inhibitor): only a modest decrease
- Proportion of truncated Mst1 over full length Mst1 ([3]; 20 mM inhibitor): only a modest decrease
- H2B Ser14 phosphorylation ([3]; 200 mM inhibitor): inhibited
- Mst1 cleavage ([3]; 200 mM inhibitor): inhibited

Molecule: COc1ccc(C[C@H]2NC[C@H](O)[C@H]2OC(C)=O)cc1 [Anisomycin]
- Levels of H2B S14 Phons Induction ([1]; Western blot): High

Molecule: COS(C)(=O)=O [MMS]
- Levels of H2B S14 Phons Induction [4]: Medium

B1: myc-tagged C-terminal truncated form of Mst1 (protein)
chain: METVQLRNPPRRQLKKLDEDSLTKQPEEVFDVLEKLGEGSYGSVYKAIHKETGQIVAIKQVPVESDLQEIIKEISIMQQCDSPHVVKYYGSYFKNTDLWIVMEYCGAGSVSDIIRLRNKTLTEDEIATILQSTLKGLEYLHFMRKIHRDIKAGNILLNTEGHAKLADFGVAGQLTDTMAKRNTVIGTPFWMAPEVIQEIGYNCVADIWSLGITAIEMAEGKPPYADIHPMRAIFMIPTNPPPTFRKPELWSDNFTDFVKQCLVKSPEQRATATQLLQHPFVRSAKGVSILRDLINEAMDVKLKRQESQQREVDQDDEENSEEDEMD
- IP kinase reaction with non-radioactive ATP, Western blot with the S14P antibody [5]: both Mst1 FL and DC phosphorylate H2B at Ser14 as detected by the S14P antibody
- in vitro kinase assay on myc immunoprecipitates, with g(32P)-ATP or cold ATP [5]: Strong phosphorylation of H2B was detected with both full length and DC Mst1

B2: myc-tagged full length Mst1 (protein)
chain: METVQLRNPPRRQLKKLDEDSLTKQPEEVFDVLEKLGEGSYGSVYKAIHKETGQIVAIKQVPVESDLQEIIKEISIMQQCDSPHVVKYYGSYFKNTDLWIVMEYCGAGSVSDIIRLRNKTLTEDEIATILQSTLKGLEYLHFMRKIHRDIKAGNILLNTEGHAKLADFGVAGQLTDTMAKRNTVIGTPFWMAPEVIQEIGYNCVADIWSLGITAIEMAEGKPPYADIHPMRAIFMIPTNPPPTFRKPELWSDNFTDFVKQCLVKSPEQRATATQLLQHPFVRSAKGVSILRDLINEAMDVKLKRQESQQREVDQDDEENSEEDEMDSGTMVRAVGDEMGTVRVASTMTDGANTMIEHDDTLPSQLGTMVINAEDEEEEGTMKRRDETMQPAKPSFLEYFEQKEKENQINSFGKSVPGPLKNSSDWKIPQDGDYEFLKSWTVEDLQKRLLALDPMMEQEIEEIRQKYQSKRQPILDAIEAKKRRQQNF
- IP kinase reaction with non-radioactive ATP, Western blot with the S14P antibody [5]: both Mst1 FL and DC phosphorylate H2B at Ser14 as detected by the S14P antibody
- in vitro kinase assay on myc immunoprecipitates, with g(32P)-ATP or cold ATP [5]: Strong phosphorylation of H2B was detected with both full length and DC Mst1

B3: myc-tagged kinase dead Mst1 (protein)
chain: METVQLRNPPRRQLKKLDEDSLTKQPEEVFDVLEKLGEGSYGSVYKAIHKETGQIVAIRQVPVESDLQEIIKEISIMQQCDSPHVVKYYGSYFKNTDLWIVMEYCGAGSVSDIIRLRNKTLTEDEIATILQSTLKGLEYLHFMRKIHRDIKAGNILLNTEGHAKLADFGVAGQLTDTMAKRNTVIGTPFWMAPEVIQEIGYNCVADIWSLGITAIEMAEGKPPYADIHPMRAIFMIPTNPPPTFRKPELWSDNFTDFVKQCLVKSPEQRATATQLLQHPFVRSAKGVSILRDLINEAMDVKLKRQESQQREVDQDDEENSEEDEMDSGTMVRAVGDEMGTVRVASTMTDGANTMIEHDDTLPSQLGTMVINAEDEEEEGTMKRRDETMQPAKPSFLEYFEQKEKENQINSFGKSVPGPLKNSSDWKIPQDGDYEFLKSWTVEDLQKRLLALDPMMEQEIEEIRQKYQSKRQPILDAIEAKKRRQQNF
- in vitro kinase assay on myc immunoprecipitates, with g(32P)-ATP or cold ATP [5]: the kinase dead form Mst1 (which contains a single point mutation) did not phosphorylate H2B

Source: patent publication US20040197838A1, “Phosphorylated histone h2b as apoptosis marker” (priority 2001, published 2004)
